“And” between values parts separate entries of the source, which are not always exact repeats. Equal entries are not always repeated. Where two headings read alike, the source gives them in different places.
Legend:
[1] = tested on: C4-LysR protein and promoter DNA fragments; assay: Electrophoretic mobility shift assay (EMSA) of C4-LysR protein with promoter DNA fragments; format: binding, Pseudomonas denitrificans; settings: 25 mM 3-HP
3hpdh [2] = assay: RT-PCR relative mRNA level of 3-HP catabolic gene
3hpdh [3] = assay: RT-PCR relative mRNA levels of 3-HP degrading genes in various microorganisms (Table 7); format: cell-based, microorganisms shown in Table 1
3hibdh = format: cell-based, microorganisms shown in Table 1
[4] = Achromobacter denitrificans, + 3-HP
[5] = Acidovorax avenae subsp., + 3-HP
[6] = Acinetobacter baumannii, + 3-HP
[7] = Alcanivorax hongdengensis, + 3-HP
[8] = Alicychphilus denitrificans, + 3-HP
[9] = Azospirillum brasilensse, + 3-HP
[10] = Bradyrhizobium japonicum, + 3-HP
[11] = Catenulispora acidiphilia, + 3-HP
[12] = Chromobacterium violaceum, + 3-HP
[13] = Corynebacterium vitaeruminis, + 3-HP
[14] = Glaciecola nitratireducens, + 3-HP
[15] = Janthinobacterium lividum, + 3-HP
[16] = Parvibaculum lavamentivorans, + 3-HP
[17] = Phenylobacterium kunshanensis, + 3-HP
[18] = Polynucleobacter necessarius asymbioticus, + 3-HP
[19] = Pseudomonas denitrificans ATCC13867, + 3-HP
[20] = Pseudomonas fluorescens, + 3-HP
[21] = Pseudomonas knackmussii, + 3-HP
[22] = Psychrobacter phenylpyruvicus, + 3-HP
[23] = Rhodomicrobium vannielli, + 3-HP
[24] = Sphingobium chlorophenolicum, + 3-HP
[25] = Stenotrophomonas maltophilia, + 3-HP
[26] = Verminephrobacter eiseniae, + 3-HP
[27] = Xanthobacter autotrophicus, + 3-HP
[28] = in the microorganisms (Table 7), 25 mM 3-HP in nutrient medium

SMILES: O=C(O)CCO [3-HP, 3-hydroxypropionic acid]
- change of affinity of C4-LysR protein to DNA fragment in the presence of 3-HP ([1]; fragment F1): barely changed affinity
- change of affinity of C4-LysR protein to DNA fragment in the presence of 3-HP ([1]; fragment F2): slightly decreased affinity
- change of affinity of C4-LysR protein to DNA fragment in the presence of 3-HP ([1]; fragment F12 (O1 and O2 operators)): increased affinity
- inducer of expression of 3hpdH (3hpdh [2]; FIG. 5): acts as an inducer
- fold increase of 3hpdh mRNA expression (3hpdh [2]; cells exposed to 25 mmol/L 3-HP vs no 3-HP, M9 medium, rpoD reference gene): 46 fold
- 3hpdh expression on addition of 3-HP (3hpdh [2]; strain with C3 LysR gene removed): not amplified
- Relative mRNA level 3hpdh + 3-HP (3hpdh [3]): 0.19
- Relative mRNA level 3hpdh + 3-HP (3hpdh [3]; [4]): 0.24
- Relative mRNA level 3hpdh + 3-HP (3hpdh [3]; [5]): 0.28
- Relative mRNA level 3hpdh + 3-HP (3hpdh [3]; Acidovorax sp., + 3-HP): 0.31
- Relative mRNA level 3hpdh + 3-HP (3hpdh [3]; [6]): 0.19
- Relative mRNA level 3hpdh + 3-HP (3hpdh [3]; Agrobacterium sp., + 3-HP): 0.27
- Relative mRNA level 3hpdh + 3-HP (3hpdh [3]; Alcaligenes faecalis, + 3-HP): 0.26
- Relative mRNA level 3hpdh + 3-HP (3hpdh [3]; [7]): 0.27
- Relative mRNA level 3hpdh + 3-HP (3hpdh [3]; [8]): 0.30
- Relative mRNA level 3hpdh + 3-HP (3hpdh [3]; Alteromonas marina, + 3-HP): 0.34
- Relative mRNA level 3hpdh + 3-HP (3hpdh [3]; [9]): 0.41
- Relative mRNA level 3hpdh + 3-HP (3hpdh [3]; Bordetella avium, + 3-HP): 0.45
- Relative mRNA level 3hpdh + 3-HP (3hpdh [3]; [10]): 0.52
- Relative mRNA level 3hpdh + 3-HP (3hpdh [3]; Burkholderia ambifaria, + 3-HP): 0.31
- Relative mRNA level 3hpdh + 3-HP (3hpdh [3]; [11]): 0.41
- Relative mRNA level 3hpdh + 3-HP (3hpdh [3]; Caulobacter sp., + 3-HP): 0.45
- Relative mRNA level 3hpdh + 3-HP (3hpdh [3]; [12]): 0.25
- Relative mRNA level 3hpdh + 3-HP (3hpdh [3]; Comamonas testosteroni, + 3-HP): 0.24
- Relative mRNA level 3hpdh + 3-HP (3hpdh [3]; [13]): 0.28
- Relative mRNA level 3hpdh + 3-HP (3hpdh [3]; Cupriavidus necator, + 3-HP): 0.21
- Relative mRNA level 3hpdh + 3-HP (3hpdh [3]; [14]): 0.30
- Relative mRNA level 3hpdh + 3-HP (3hpdh [3]; Gordonia bronchialis, + 3-HP): 0.29
- Relative mRNA level 3hpdh + 3-HP (3hpdh [3]; Hahella chijuensis, + 3-HP): 0.28
- Relative mRNA level 3hpdh + 3-HP (3hpdh [3]; Halomonas elongata, + 3-HP): 0.32
- Relative mRNA level 3hpdh + 3-HP (3hpdh [3]; Hirschia litorea, + 3-HP): 0.34
- Relative mRNA level 3hpdh + 3-HP (3hpdh [3]; Idiomarina sp., + 3-HP): 0.42
- Relative mRNA level 3hpdh + 3-HP (3hpdh [3]; [15]): 0.33
- Relative mRNA level 3hpdh + 3-HP (3hpdh [3]; Kitasatospora setae, + 3-HP): 0.36
- Relative mRNA level 3hpdh + 3-HP (3hpdh [3]; Kutzneria albida, + 3-HP): 0.41
- Relative mRNA level 3hpdh + 3-HP (3hpdh [3]; Methylobacterium sp., + 3-HP): 0.45
- Relative mRNA level 3hpdh + 3-HP (3hpdh [3]; Novosphingobium sp., + 3-HP): 0.39
- Relative mRNA level 3hpdh + 3-HP (3hpdh [3]; Oceanimonas smirnovii, + 3-HP): 0.24
- Relative mRNA level 3hpdh + 3-HP (3hpdh [3]; Paracoccus sp., + 3-HP): 0.25
- Relative mRNA level 3hpdh + 3-HP (3hpdh [3]; [16]): 0.28
- Relative mRNA level 3hpdh + 3-HP (3hpdh [3]; [17]): 0.33
- Relative mRNA level 3hpdh + 3-HP (3hpdh [3]; [18]): 0.45
- Relative mRNA level 3hpdh + 3-HP (3hpdh [3]; Pseudogulbenkiania sp., + 3-HP): 0.26
- Relative mRNA level 3hpdh + 3-HP (3hpdh [3]; [19]): 0.23
- Relative mRNA level 3hpdh + 3-HP (3hpdh [3]; [20]): 0.27
- Relative mRNA level 3hpdh + 3-HP (3hpdh [3]; [21]): 0.25
- Relative mRNA level 3hpdh + 3-HP (3hpdh [3]; Pseudomonas protegens, + 3-HP): 0.19
- Relative mRNA level 3hpdh + 3-HP (3hpdh [3]; [22]): 0.37
- Relative mRNA level 3hpdh + 3-HP (3hpdh [3]; [23]): 0.41
- Relative mRNA level 3hpdh + 3-HP (3hpdh [3]; Segniliparus rotundus, + 3-HP): 0.27
- Relative mRNA level 3hpdh + 3-HP (3hpdh [3]; Shewanella oneidensis, + 3-HP): 0.28
- Relative mRNA level 3hpdh + 3-HP (3hpdh [3]; Simiduia agarovorans, + 3-HP): 0.29
- Relative mRNA level 3hpdh + 3-HP (3hpdh [3]; [24]): 0.33
- Relative mRNA level 3hpdh + 3-HP (3hpdh [3]; Sphingomonas wittichii, + 3-HP): 0.45
- Relative mRNA level 3hpdh + 3-HP (3hpdh [3]; [25]): 0.31
- Relative mRNA level 3hpdh + 3-HP (3hpdh [3]; Streptomyces nodosus, + 3-HP): 0.39
- Relative mRNA level 3hpdh + 3-HP (3hpdh [3]; [26]): 0.43
- Relative mRNA level 3hpdh + 3-HP (3hpdh [3]; Vibrio furnissii, + 3-HP): 0.39
- Relative mRNA level 3hpdh + 3-HP (3hpdh [3]; [27]): 0.27
- Relative mRNA level 3hpdh + 3-HP (3hpdh [3]; Xanthomonas campestri, + 3-HP): 0.25
- increase of expression of 3hpdh by 3-HP (3hpdh [3]; [28]): 6 fold
- Relative mRNA level 3hibdh + 3-HP (3hibdh): 7.21 and 6.43
- Relative mRNA level 3hibdh + 3-HP (3hibdh; [4]): 6.40
- Relative mRNA level 3hibdh + 3-HP (3hibdh; [5]): 5.97
- Relative mRNA level 3hibdh + 3-HP (3hibdh; Acidovorax sp., + 3-HP): 6.76
- Relative mRNA level 3hibdh + 3-HP (3hibdh; [6]): 6.02
- Relative mRNA level 3hibdh + 3-HP (3hibdh; Aeromonas hydrophilia, + 3-HP): 6.17
- Relative mRNA level 3hibdh + 3-HP (3hibdh; Agrobacterium sp., + 3-HP): 6.27
- Relative mRNA level 3hibdh + 3-HP (3hibdh; Alcaligenes faecalis, + 3-HP): 5.87
- Relative mRNA level 3hibdh + 3-HP (3hibdh; [7]): 6.74
- Relative mRNA level 3hibdh + 3-HP (3hibdh; [8]): 7.01
- Relative mRNA level 3hibdh + 3-HP (3hibdh; Alteromonas marina, + 3-HP): 6.09
- Relative mRNA level 3hibdh + 3-HP (3hibdh; Amycolatopsis sp., + 3-HP): 5.96
- Relative mRNA level 3hibdh + 3-HP (3hibdh; Anaeromyxobacter dehalogenans, + 3-HP): 6.43
- Relative mRNA level 3hibdh + 3-HP (3hibdh; [9]): 6.54
- Relative mRNA level 3hibdh + 3-HP (3hibdh; Azotobacter vinelandii, + 3-HP): 6.73
- Relative mRNA level 3hibdh + 3-HP (3hibdh; Beijerinckia indica, + 3-HP): 6.59
- Relative mRNA level 3hibdh + 3-HP (3hibdh; Bordetella avium, + 3-HP): 6.04
- Relative mRNA level 3hibdh + 3-HP (3hibdh; [10]): 7.21
- Relative mRNA level 3hibdh + 3-HP (3hibdh; Burkholderia ambifaria, + 3-HP): 5.94
- Relative mRNA level 3hibdh + 3-HP (3hibdh; Castellaniella defragrans, + 3-HP): 7.43
- Relative mRNA level 3hibdh + 3-HP (3hibdh; [11]): 5.84
- Relative mRNA level 3hibdh + 3-HP (3hibdh; Caulobacter sp., + 3-HP): 5.96
- Relative mRNA level 3hibdh + 3-HP (3hibdh; [12]): 7.02
- Relative mRNA level 3hibdh + 3-HP (3hibdh; Collimonas arenae, + 3-HP): 7.20
- Relative mRNA level 3hibdh + 3-HP (3hibdh; Comamonas testosteroni, + 3-HP): 5.88
- Relative mRNA level 3hibdh + 3-HP (3hibdh; [13]): 6.99
- Relative mRNA level 3hibdh + 3-HP (3hibdh; Cupriavidus necator, + 3-HP): 6.84
- Relative mRNA level 3hibdh + 3-HP (3hibdh; Curvibacter gracilus, + 3-HP): 5.76
- Relative mRNA level 3hibdh + 3-HP (3hibdh; Delftia acidovorans, + 3-HP): 6.34
- Relative mRNA level 3hibdh + 3-HP (3hibdh; Ferrimonas balearica, + 3-HP): 7.04
- Relative mRNA level 3hibdh + 3-HP (3hibdh; [14]): 7.11
- Relative mRNA level 3hibdh + 3-HP (3hibdh; Gordonia bronchialis, + 3-HP): 6.99
- Relative mRNA level 3hibdh + 3-HP (3hibdh; Hahella chijuensis, + 3-HP): 6.81
- Relative mRNA level 3hibdh + 3-HP (3hibdh; Halomonas elongata, + 3-HP): 5.41
- Relative mRNA level 3hibdh + 3-HP (3hibdh; Hirschia litorea, + 3-HP): 6.19
- Relative mRNA level 3hibdh + 3-HP (3hibdh; Idiomarina sp., + 3-HP): 7.21
- Relative mRNA level 3hibdh + 3-HP (3hibdh; [15]): 6.98
- Relative mRNA level 3hibdh + 3-HP (3hibdh; Kitasatospora setae, + 3-HP): 6.46
- Relative mRNA level 3hibdh + 3-HP (3hibdh; Kutzneria albida, + 3-HP): 5.96
- Relative mRNA level 3hibdh + 3-HP (3hibdh; Methylobacterium sp., + 3-HP): 6.02
- Relative mRNA level 3hibdh + 3-HP (3hibdh; Methylocystis sp., + 3-HP): 6.51
- Relative mRNA level 3hibdh + 3-HP (3hibdh; Novosphingobium sp., + 3-HP): 5.98
- Relative mRNA level 3hibdh + 3-HP (3hibdh; Oceanimonas smirnovii, + 3-HP): 6.44
- Relative mRNA level 3hibdh + 3-HP (3hibdh; Paracoccus sp., + 3-HP): 6.32
- Relative mRNA level 3hibdh + 3-HP (3hibdh; [16]): 7.31
- Relative mRNA level 3hibdh + 3-HP (3hibdh; [17]): 7.43
- Relative mRNA level 3hibdh + 3-HP (3hibdh; Photobacterium gaetbuleda, + 3-HP): 7.02
- Relative mRNA level 3hibdh + 3-HP (3hibdh; [18]): 6.99
- Relative mRNA level 3hibdh + 3-HP (3hibdh; Pseudoalteromonas carrgeenovora, + 3-HP): 5.76
- Relative mRNA level 3hibdh + 3-HP (3hibdh; Pseudogulbenkiania sp., + 3-HP): 5.98
- Relative mRNA level 3hibdh + 3-HP (3hibdh; [19]): 6.20
- Relative mRNA level 3hibdh + 3-HP (3hibdh; [20]): 5.81
- Relative mRNA level 3hibdh + 3-HP (3hibdh; [21]): 6.81
- Relative mRNA level 3hibdh + 3-HP (3hibdh; Pseudomonas protegens, + 3-HP): 5.62
- Relative mRNA level 3hibdh + 3-HP (3hibdh; Pseudoxanthomonas spadix, + 3-HP): 5.99
- Relative mRNA level 3hibdh + 3-HP (3hibdh; [22]): 7.04
- Relative mRNA level 3hibdh + 3-HP (3hibdh; [23]): 7.01
- Relative mRNA level 3hibdh + 3-HP (3hibdh; Segniliparus rotundus, + 3-HP): 5.81
- Relative mRNA level 3hibdh + 3-HP (3hibdh; Shewanella oneidensis, + 3-HP): 5.81
- Relative mRNA level 3hibdh + 3-HP (3hibdh; Simiduia agarovorans, + 3-HP): 5.76
- Relative mRNA level 3hibdh + 3-HP (3hibdh; Sinorhizobium meliloti, + 3-HP): 5.79
- Relative mRNA level 3hibdh + 3-HP (3hibdh; [24]): 5.99
- Relative mRNA level 3hibdh + 3-HP (3hibdh; Sphingomonas wittichii, + 3-HP): 7.02
- Relative mRNA level 3hibdh + 3-HP (3hibdh; Sphingopyxis alaskensis, + 3-HP): 7.00
- Relative mRNA level 3hibdh + 3-HP (3hibdh; [25]): 6.02
- Relative mRNA level 3hibdh + 3-HP (3hibdh; Streptomyces nodosus, + 3-HP): 6.72
- Relative mRNA level 3hibdh + 3-HP (3hibdh; Tatlockia micdadei, + 3-HP): 6.61
- Relative mRNA level 3hibdh + 3-HP (3hibdh; Thalassospira xiamenensis, + 3-HP): 7.02
- Relative mRNA level 3hibdh + 3-HP (3hibdh; Variovorax paradoxus, + 3-HP): 6.59
- Relative mRNA level 3hibdh + 3-HP (3hibdh; [26]): 6.43
- Relative mRNA level 3hibdh + 3-HP (3hibdh; Vibrio furnissii, + 3-HP): 6.03
- Relative mRNA level 3hibdh + 3-HP (3hibdh; [27]): 6.23
- Relative mRNA level 3hibdh + 3-HP (3hibdh; Xanthomonas campestri, + 3-HP): 5.81
- increase of expression of 3hibdh by 3-HP (3hibdh; [28]): 14 fold

— patent US10961539B2, “Promoter system inducing expression by 3-hydroxypropionic acid and method for biological production of 3-hydroxypropionic acid using same” (NOROO IC Co., Ltd., priority 2015, dated 2021)
